Experimental data taken from patent publication US20240279215A1 (Cytokinetics, Incorporated, priority 2022, published 2024).
Structures can show the parent of a compound that is named as a salt.

Target: human NAMPT (Homo sapiens (Human), UniProt P43490)
Test: NMN fluorescence biochemical assay (human recombinant NAMPT enzyme assay)
How it was run: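 NMN formed was detected by fluorescence (Ex/Em 355/460 nm) after acetophenone, KOH and formic acid derivatization. The cell-free reaction ran 60 min at ambient temperature with 6 nM human NAMPT, 150 μM nicotinamide, 20 μM PRPP, 2.5 mM ATP, pH 7.2 HEPES, and compound dose responses.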

Sequence of human NAMPT (P43490 whole entry): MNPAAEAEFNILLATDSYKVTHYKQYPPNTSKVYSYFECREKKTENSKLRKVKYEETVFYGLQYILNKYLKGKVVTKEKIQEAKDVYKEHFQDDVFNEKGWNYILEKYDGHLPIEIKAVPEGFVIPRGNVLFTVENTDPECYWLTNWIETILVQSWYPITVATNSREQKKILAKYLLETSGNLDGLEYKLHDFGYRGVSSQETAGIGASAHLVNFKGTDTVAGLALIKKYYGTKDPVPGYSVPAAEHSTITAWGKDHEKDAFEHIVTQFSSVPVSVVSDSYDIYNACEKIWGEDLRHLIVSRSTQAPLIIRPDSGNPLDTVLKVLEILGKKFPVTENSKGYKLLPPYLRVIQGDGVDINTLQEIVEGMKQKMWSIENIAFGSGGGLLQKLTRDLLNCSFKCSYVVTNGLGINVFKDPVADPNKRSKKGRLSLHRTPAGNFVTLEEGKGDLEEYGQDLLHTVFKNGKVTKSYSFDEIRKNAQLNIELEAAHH

Row | Compound | AC1.4 Human | EC50
1 | CN(Cc1ccc(NC(=O)OCc2ccc(Cl)cc2)cc1)C(=O)c1cncc(F)c1 [Compound 250, (4-chlorophenyl)methyl N-(4-{[1-(5-fluoropyridin-3-yl)-N-methylformamido]methyl}phenyl)carbamate] | 2.58 µM | 21.3 µM
2 | Cc1nocc1C(=O)NCc1ccc(NC(=O)OCc2ccc(Cl)cc2)cc1 [Compound 251, (4-chlorophenyl)methyl N-(4-{[(3-methyl-1,2-oxazol-4-yl)formamido]methyl}phenyl)carbamate] | 2.59 µM | 11 µM
3 | O=C(Nc1ccc(CCC2CCNCC2)cc1)OCc1cnco1 [Compound 252, oxazol-5-ylmethyl (4-(2-(piperidin-4-yl)ethyl)phenyl)carbamate hydrochloride] | 2.60 µM | 26.2 µM
4 | COc1cnn(C)c1C(=O)N(C)Cc1ccc(NC(=O)OCc2ccc(Cl)cc2)cc1 [Compound 253, (4-chlorophenyl)methyl N-(4-{[1-(4-methoxy-2-methylpyrazol-3-yl)-N-methylformamido]methyl}phenyl)carbamate] | 2.62 µM | 17.9 µM
5 | Cn1ccc(C(=O)NCc2ccc(NC(=O)OCc3ccc(Cl)cc3)cc2)c1 [Compound 254, (4-chlorophenyl)methyl N-(4-{[(1-methylpyrrol-3-yl)formamido]methyl}phenyl)carbamate] | 2.64 µM | 15.1 µM
6 | Cn1ccc(C(=O)NCc2ccc(NC(=O)OCc3ccc(Cl)cc3)cc2)n1 [Compound 255, (4-chlorophenyl)methyl N-(4-{[(1-methylpyrazol-3-yl)formamido]methyl}phenyl)carbamate] | 2.65 µM | 31.7 µM
7 | C[C@@H]1CCCN(C(=O)Cc2ccc(NC(=O)OCc3ccc(Cl)cc3)cc2)C1 [Compound 256, (4-chlorophenyl)methyl N-(4-{2-[(3R)-3-methylpiperidin-1-yl]-2-oxoethyl}phenyl)carbamate] | 2.69 µM | 10.5 µM
8 | O=C(Nc1ccc(CC(=O)N2CCCC[C@H]2CO)cc1)OCc1ccc(Cl)cc1 [Compound 257, (4-chlorophenyl)methyl N-(4-{2-[(2S)-2-(hydroxymethyl)piperidin-1-yl]-2-oxoethyl}phenyl)carbamate] | 2.70 µM | 31.2 µM
9 | O=C(Nc1ccc(CNC(=O)N2CCN(CC(F)F)CC2)cc1)OCc1ccc(Cl)cc1 [Compound 258, (4-chlorophenyl)methyl N-(4-{[4-(2,2-difluoroethyl)piperazine-1-carbonylamino]methyl}phenyl)carbamate] | 2.74 µM | 7.62 µM
10 | C[C@H](NC(=O)c1cc(C(F)F)nn1C)c1ccc(NC(=O)OCc2ccc(Cl)cc2)cc1 [Compound 259] | 2.75 µM | 13.9 µM
11 | CCc1ncoc1C(=O)N[C@@H](C)c1ccc(NC(=O)OCc2ccc(Cl)cc2)cc1 [Compound 260, (4-chlorophenyl)methyl N-{4-[(1S)-1-[(4-ethyl-1,3-oxazol-5-yl)formamido]ethyl]phenyl}carbamate] | 2.77 µM | 14.5 µM
12 | C[C@H]1CCCN(C(=O)Cc2ccc(NC(=O)OCc3ccc(Cl)cc3)cc2)C1 [Compound 261, (4-chlorophenyl)methyl N-(4-{2-[(3S)-3-methylpiperidin-1-yl]-2-oxoethyl}phenyl)carbamate] | 2.83 µM | 9.46 µM
13 | COc1ccc(COC(=O)Nc2ccc(Cc3ccncc3)cc2)cc1 [Compound 262, 4-methoxybenzyl (4-(pyridin-4-ylmethyl)phenyl)carbamate] | 2.83 µM | 11.9 µM
14 | COc1ccc(COC(=O)Nc2ccc([C@H]3CNC(=O)CN3C)cc2)cc1 [Compound 263, 4-methoxybenzyl (S)-(4-(1-methyl-5-oxopiperazin-2-yl)phenyl)carbamate] | 2.92 µM | 39.1 µM
15 | Cc1ccc(N(C)C(=O)Cc2ccc(NC(=O)OCc3ccc(Cl)cc3)cc2)cn1 [Compound 264, (4-chlorophenyl)methyl N-(4-{[methyl(6-methylpyridin-3-yl)carbamoyl]methyl}phenyl)carbamate] | 2.93 µM | 19.7 µM
16 | O=C(Nc1ccc(CNC(=O)N2CCC2)cc1)OCc1ccc(Cl)cc1 [Compound 265, (4-chlorophenyl)methyl N-{4-[(azetidine-1-carbonylamino)methyl]phenyl}carbamate] | 2.94 µM | 23.2 µM
17 | C[C@H](NC(=O)C1CC1)c1ccc(NC(=O)OCc2cnco2)cc1 [Compound 266, 1,3-oxazol-5-ylmethyl N-{4-[(1S)-1-(cyclopropylformamido)ethyl]phenyl}carbamate] | 2.98 µM | 14.9 µM
18 | Cc1cnc(C(=O)N[C@@H](C)c2ccc(NC(=O)OCc3ccc(Cl)cc3)cc2)o1 [Compound 267, 4-chlorobenzyl (S)-(4-(1-(5-methyloxazole-2-carboxamido)ethyl)phenyl)carbamate] | 3.04 µM | 36.5 µM

Row | Compound | AC1.4 Human | EC50
19 | Cc1cnoc1C(=O)NCc1ccc(NC(=O)OCc2ccc(Cl)cc2)cc1 [Compound 268, (4-chlorophenyl)methyl N-(4-{[(4-methyl-1,2-oxazol-5-yl)formamido]methyl}phenyl)carbamate] | 3.05 µM | 13.8 µM
20 | O=C(Nc1ccc(CCN2CCN(C3COC3)CC2)cc1)OCc1cnco1 [Compound 269, 1,3-oxazol-5-ylmethyl N-(4-{2-[4-(oxetan-3-yl)piperazin-1-yl]ethyl}phenyl)carbamate] | 3.13 µM | 44.1 µM
21 | O=C(Nc1ccc(CNC(=O)N2CCOCC2)cc1)OCc1ccc(Cl)cc1 [Compound 270, (4-chlorophenyl)methyl N-{4-[(morpholine-4-carbonylamino)methyl]phenyl}carbamate] | 3.14 µM | 47.2 µM
22 | O=C(Nc1ccc(CNC(=O)c2cncc(F)c2)cc1)OCc1ccc(Cl)cc1 [Compound 271, (4-chlorophenyl)methyl N-(4-{[(5-fluoropyridin-3-yl)formamido]methyl}phenyl)] | 3.15 µM | 4.8 µM
23 | O=C(Nc1ccc(CNC(=O)c2ccccn2)cc1)OCc1ccc(Cl)cc1 [Compound 272, (4-chlorophenyl)methyl N-{4-[(pyridin-2-ylformamido)methyl]phenyl}carbamate] | 3.18 µM | 10.9 µM
24 | O=C(Cc1ccc(NC(=O)OCc2ccc(Cl)cc2)cc1)Nc1cncc(F)c1 [Compound 273, (4-chlorophenyl)methyl N-(4-{[(5-fluoropyridin-3-yl)carbamoyl]methyl}phenyl)carbamate] | 3.21 µM | 14.4 µM
25 | O=C(Nc1ccc(CC(=O)N2CCC(F)(F)CC2)cc1)OCc1ccc(Cl)cc1 [Compound 274, (4-chlorophenyl)methyl N-{4-[2-(4,4-difluoropiperidin-1-yl)-2-oxoethyl]phenyl}carbamate] | 3.32 µM | 6.15 µM
26 | Cc1ccc(C(=O)NCc2ccc(NC(=O)OCc3ccc(OC(F)F)cc3)cc2)cn1 [Compound 275, (4-(difluoro-13-methyl)phenyl)methyl (4-((6-methylnicotinamido)methyl)phenyl)carbamate] | 3.32 µM | 12.6 µM
27 | Cc1coc(C(=O)NCc2ccc(NC(=O)OCc3ccc(Cl)cc3)cc2)n1 [Compound 276, (4-chlorophenyl)methyl N-(4-{[(4-methyl-1,3-oxazol-2-yl)formamido]methyl}phenyl)carbamate] | 3.32 µM | 18.3 µM
28 | CN1CC(C(=O)NCc2ccc(NC(=O)OCc3ccc(Cl)cc3)cc2)CC1=O (stereo not drawn) [Compound 277, (4-chlorophenyl)methyl N-(4-{[(1-methyl-5-oxopyrrolidin-3-yl)formamido]methyl}phenyl)carbamate] | 3.36 µM | 39.9 µM
29 | CN1CC(=O)NC[C@@H]1c1ccc(NC(=O)OCc2ccc(F)cc2)cc1 [Compound 278, 4-fluorobenzyl (S)-(4-(1-methyl-5-oxopiperazin-2-yl)phenyl)carbamate] | 3.40 µM | 17.4 µM
30 | O=C(Nc1ccc(Cc2ncccn2)cc1)OCc1ccc(Cl)cc1 [Compound 279, 4-chlorobenzyl (4-(pyrimidin-2-ylmethyl)phenyl)carbamate] | 3.43 µM | 29 µM
31 | CO[C@H]1CC[C@@H](NC(=O)Cc2ccc(NC(=O)OCc3ccc(Cl)cc3)cc2)CC1 [Compound 280, (4-chlorophenyl)methyl N-[4-({[(1s,4s)-4-methoxycyclohexyl]carbamoyl}methyl)phenyl]carbamate] | 3.51 µM | 14.5 µM
32 | CC(=O)N1CCOC(c2ccc(NC(=O)OCc3ccc(Cl)cc3)cc2)C1 (stereo not drawn) [Compound 281, (4-chlorophenyl)methyl N-[4-(4-acetylmorpholin-2-yl)phenyl]carbamate] | 3.56 µM | 46.9 µM
33 | O=C(Nc1ccc(CC(=O)N2CCN(CC(F)F)CC2)cc1)OCc1ccc(Cl)cc1 [Compound 282, (4-chlorophenyl)methyl N-(4-{2-[4-(2,2-difluoroethyl)piperazin-1-yl]-2-oxoethyl}phenyl)carbamate] | 3.57 µM | 19.1 µM
34 | COC1CCN(C(=O)Cc2ccc(NC(=O)OCc3ccc(Cl)cc3)cc2)CC1 [Compound 283, (4-chlorophenyl)methyl N-{4-[2-(4-methoxypiperidin-1-yl)-2-oxoethyl]phenyl}carbamate] | 3.61 µM | 47.9 µM
35 | CN1CCN(Cc2ccc(NC(=O)OCc3ccc(Cl)cc3)cc2)CC1=O [Compound 284, (4-chlorophenyl)methyl N-{4-[(4-methyl-3-oxopiperazin-1-yl)methyl]phenyl}carbamate] | 3.72 µM | 19.2 µM
36 | O=C(Nc1ccc(CNC(=O)C2CCOCC2)cc1)OCc1ccc(Cl)cc1 [Compound 285, (4-chlorophenyl)methyl N-{4-[(oxan-4-ylformamido)methyl]phenyl}carbamate] | 3.78 µM | 9.55 µM
